The values that follow come from patent US12583856B2, “Inhibitors of protein kinase A” (Blueprint Medicines Corporation, priority 2021, dated 2026).

Molecules are shown by their SMILES.

The target in one data set is T1, PRKACA (Homo sapiens, UniProt P17612).
T1 construct: purchased Millipore 539482
In words: PRKACA assay at Km (EZ Reader 2 electrophoretic mobility shift). The format is biochemical. The settings on record: 5 μM ATP (Km), 1 μM Kemptide, 90 minutes at 25 C; read-out: Enz PRKACA IC50. An outline of the steps:
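PRKACA (0.18 nM) was incubated with 1 μM 5-FAM-Kemptide and 5 μM ATP for 90 min at 25 °C in HEPES pH 7.5 buffer with 10 mM MgCl2, 1% DMSO, then stopped with EDTA. Substrate and product were separated by microfluidic mobility shift, and IC50 was taken from a 4-parameter fit of normalised inhibition.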
On the technique in general: A gel shift assay detects complexes by their altered migration in electrophoresis.

Data set [1] deals with PKA (phosphorylation of VASP on Serine 157). In words: Cellular potency assay: P-VASP(157) HTRF in Forskolin-stimulated Huh7 cells. It counts as cell-based. Conditions: Homo sapiens, Huh-7, 4 hours compound, 5 μM Forskolin 30 minutes, read-out: Phos VASP(S157) IC50. An outline of the steps:
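Huh7 cells in serum-free DMEM were pretreated with compound for 4 h at 37 °C (0.24% DMSO final), then stimulated with 5 μM forskolin for 30 min. Lysates were assayed for phospho-VASP Ser157 by HTRF sandwich immunoassay, read at 665/620 nm.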
(In general: In TR-FRET formats the signal depends on donor and acceptor labels being close together.)

Data set [2] deals with FL-HCC (LI5132) PDX tumors. Put plainly: Efficacy study in FL-HCC (LI5132) patient-derived xenograft (PDX) model. It counts as in vivo. The settings on record: oral delivery; compound 144: 30 mg/kg PO QDX34; FIG. 3. A general note: A xenograft is tissue or cells of one species grown in another, often human tumour cells in immunodeficient mice.
Text: Efficacy: To establish the PDX model, 72 mice were inoculated with patient tumor cells to yield at least 36 mice with tumors of the required size. 18 of these mice were selected for the study.
Another data set has as its target T2, PRKACA-DNAJB1 (Homo sapiens, UniProt P17612).
T2 construct: DNAJB1 (fusion partner, P25685); the other entry of the earlier key: DNAJB1 (P25685, DnaJ homolog subfamily B member 1)
In words: PRKACA-DNAJB1 enzyme assay (EZ Reader 2 electrophoretic mobility shift). It counts as biochemical. Conditions: read-out: Enz PRKACA-DNAJB1 IC50. The procedure: A Perkin Elmer electrophoretic mobility shift platform (the EZ Reader 2) was used to assess the activity of test compounds against a kinase of interest. Fluorescently labeled substrate peptide was incubated in the presence of kinase, ATP, and the test compound, so that a portion of the peptide was phosphorylated by the enzyme. At the end of the reaction, the mix of phosphorylated (product) and non-phosphorylated (substrate) peptide containing solutions was passed through the microfluidic system of the Perkin Elmer EZ Reader 2 under an applied potential difference. The presence of the phosphate group on the product peptide provided a difference in mass and charge between those of the substrate peptide, resulting in a separation of the substrate and product pools in the sample. As the stopped solutions passed under the instrument's LED light the phosphorylated and un-phosphorylated fluorophore bound peptides were detected and resolved as separate peaks. The ratio between these peaks therefore reflected the test compound's impact on the kinase at that concentration in that well under those conditions.

A word on the IC50: it is the concentration that inhibits the measured activity by half. For `O=C(N[C@@H]1c2ccccc2C[C@H]1N1CCCC1)c1ccc(-c2ccnc3[nH]ccc23)nc1` [Compound 144, N-[(1R,2R)-2-(Pyrrolidin-1-yl)-2,3-dihydro-1H-inden-1-yl]-6-{1H-pyrrolo[2,3-b]pyridin-4-yl}pyridine-3-carboxamide], the IC50 at PRKACA is no more than 1 nM. Also, in data set [1], the concentration for half-maximal inhibition (IC50) is less than 50 nM. Also, in data set [2], the “FLC tumor growth inhibition” value is reported as “significant FLC tumor growth inhibition” and the “tolerability of the dose” value is “tolerated”.

For `CN(C)[C@@H]1Cc2ccccc2[C@H]1NC(=O)c1ccc(-c2ccnc3[nH]ccc23)cc1` [Compound 120, N-[(1R,2R)-2-(Dimethylamino)-2,3-dihydro-1H-inden-1-yl]-4-{1H-pyrrolo[2,3-b]pyridin-4-yl}benzamide], the IC50 on PRKACA was no more than 1 nM; in data set [1], less than 50 nM; on PRKACA-DNAJB1 it was no more than 1 nM.

`CO[C@@H]1CCN([C@@H]2Cc3cccc(Cl)c3[C@H]2NC(=O)c2ccc(-c3ccnc4[nH]cc(C)c34)nc2)C1` [Compound 188]: the 50% inhibitory concentration (IC50) at PRKACA is no more than 1 nM; in data set [1], 0.01 to 100 nM; on PRKACA-DNAJB1, 1.01 to 5 nM.

Take `Cc1c[nH]c2nccc(-c3ccc(C(=O)N[C@H]4C[C@@H](C)Oc5ccc(F)c(F)c54)cn3)c12` [Compound 148, N-[(2R,4S)-5,6-Difluoro-2-methyl-3,4-dihydro-2H-1-benzopyran-4-yl]-6-{3-methyl-1H-pyrrolo[2,3-b]pyridin-4-yl}pyridine-3-carboxamide]: the results for the IC50 (at PRKACA; in data set [1]; at PRKACA-DNAJB1) were no more than 1 nM, 0.01 to 100 nM and no more than 1 nM, respectively.

As to `O=C(N[C@H]1CCOc2cccc(F)c21)c1ccc(-c2ccnc3[nH]ccc23)nc1` [Compound 117, (S)—N-(5-Fluorochroman-4-yl)-6-(1H-pyrrolo[2,3-b]pyridin-4-yl)nicotinamide], the IC50 was no more than 1 nM on PRKACA, less than 50 nM in data set [1] and no more than 1 nM on PRKACA-DNAJB1.

Regarding `O=C(N[C@@H]1c2c(F)cc(C(F)F)cc2C[C@@H]1O)c1ccc(-c2ccnc3[nH]ccc23)nc1` [Compound 154], the results for the IC50 (on PRKACA; in data set [1]; at PRKACA-DNAJB1) were no more than 1 nM, less than 50 nM and no more than 1 nM, respectively.

Take `O=C(N[C@@H]1c2c(F)cccc2C[C@H]1N1CCCC1)c1ccc(-c2ccnc3[nH]cc(F)c23)nc1` [Compound 169]: the IC50 was no more than 1 nM at PRKACA, less than 50 nM in data set [1] and no more than 1 nM at PRKACA-DNAJB1.

In the case of `O=C(N[C@@H]1c2c(Cl)cccc2OC[C@@H]1O)c1ccc(-c2ccnc3[nH]ccc23)nc1` [Compound 139], the IC50 on PRKACA is no more than 1 nM; in data set [1], 0.01 to 100 nM; at PRKACA-DNAJB1, 1.01 to 5 nM.

For `Cc1c[nH]c2nccc(-c3ccc(C(=O)N[C@@H]4c5c(F)cccc5C[C@H]4N4CCCC4)cn3)c12` [Compound 165], the IC50 at PRKACA was no more than 1 nM; in data set [1], less than 50 nM; on PRKACA-DNAJB1, no more than 1 nM.

With `CO[C@@H]1CCN([C@@H]2Cc3cccc(Cl)c3[C@H]2NC(=O)c2ccc(-c3ccnc4[nH]cc(F)c34)nc2)C1` [Compound 189], the IC50 at PRKACA was no more than 1 nM; in data set [1], 0.01 to 100 nM; on PRKACA-DNAJB1 it was no more than 1 nM.

In the case of `O=C(N[C@H]1CCc2cc(C(F)F)ccc21)c1ccc(-c2ccnc3[nH]ccc23)cc1` (single isomer, unassigned) [Compound 125], the values for the IC50 (at PRKACA; in data set [1]; on PRKACA-DNAJB1) were no more than 1 nM, less than 50 nM and no more than 1 nM, respectively.

Consider `Cc1c[nH]c2nccc(-c3ccc(C(=O)N[C@@H]4c5c(ccc(F)c5F)O[C@@H](C)[C@H]4O)cn3)c12` [Compound 160], for which the half-maximal inhibitory concentration (IC50) at PRKACA is no more than 1 nM; in data set [1] it was less than 50 nM; at PRKACA-DNAJB1 it was no more than 1 nM.

As to `Cc1c[nH]c2nccc(-c3ccc(C(=O)N[C@@H]4c5c(F)cccc5OC[C@@H]4O)cn3)c12` [Compound 135], the 50% inhibitory concentration (IC50) is no more than 1 nM at PRKACA, 0.01 to 100 nM in data set [1] and no more than 1 nM at PRKACA-DNAJB1.

Consider `O=C(N[C@@H]1c2c(F)cccc2C[C@H]1N1CC[C@@H](O)C1)c1ccc(-c2ccnc3[nH]ccc23)nc1` [Compound 167], for which the half-maximal inhibitory concentration (IC50) was no more than 1 nM at PRKACA, 0.01 to 100 nM in data set [1] and no more than 1 nM at PRKACA-DNAJB1.

For the compound `O=C(N[C@H]1C[C@@H](O)c2cccc(F)c21)c1ccc(-c2ccnc3[nH]ccc23)nc1` (single isomer, unassigned) [Compound 119], the IC50 was no more than 1 nM on PRKACA, greater than 100 nM in data set [1] and 1.01 to 5 nM at PRKACA-DNAJB1.

On to `CO[C@@H]1CCN([C@@H]2Cc3cccc(F)c3[C@H]2NC(=O)c2ccc(-c3ccnc4[nH]ccc34)nc2)C1` [Compound 173], for which the half-inhibitory concentration (IC50) was no more than 1 nM at PRKACA, 0.01 to 100 nM in data set [1] and no more than 1 nM at PRKACA-DNAJB1.

On to `O=C(N[C@@H]1c2c(F)cccc2OC[C@@H]1O)c1ccc(-c2ccnc3[nH]ccc23)cn1` [Compound 127], for which the half-maximal inhibitory concentration (IC50) at PRKACA is no more than 1 nM; in data set [1] it was less than 50 nM; on PRKACA-DNAJB1, 1.01 to 5 nM.

For the compound `Cc1c[nH]c2nccc(-c3ccc(C(=O)N[C@@H]4c5c(F)cc(C(F)F)cc5C[C@@H]4O)cn3)c12` [Compound 162, N-[(1R,2S)-5-(Difluoromethyl)-7-fluoro-2-hydroxy-2,3-dihydro-1H-inden-1-yl]-6-{3-methyl-1H-pyrrolo[2,3-b]pyridin-4-yl}pyridine-3-carboxamide], the IC50 is no more than 1 nM at PRKACA, less than 50 nM in data set [1] and no more than 1 nM at PRKACA-DNAJB1. The “FLC tumor growth inhibition” value in data set [2] was “significant FLC tumor growth inhibition”. Further, in data set [2], the “tolerability of the dose” value was “tolerated”.

In the case of `O=C(N[C@@H]1c2ccccc2C[C@H]1N1CCCC1)c1ccc(-c2ccnc3[nH]cc(F)c23)nc1` [Compound 159], the IC50 at PRKACA was no more than 1 nM; in data set [1], 0.01 to 100 nM; at PRKACA-DNAJB1 it was 1.01 to 5 nM.

`CN(C)C(=O)[C@@H]1CCCN1[C@@H]1Cc2cccc(Cl)c2[C@H]1NC(=O)c1ccc(-c2ccnc3[nH]ccc23)nc1` [Compound 191]: the 50% inhibitory concentration (IC50) at PRKACA was no more than 1 nM; in data set [1], less than 50 nM; at PRKACA-DNAJB1, no more than 1 nM.

Take `O=C(N[C@@H]1c2c(F)cccc2C[C@H]1N1CC[C@H](F)C1)c1ccc(-c2ccnc3[nH]ccc23)nc1` [Compound 170]: the IC50 on PRKACA was no more than 1 nM; in data set [1], less than 50 nM; on PRKACA-DNAJB1, no more than 1 nM.
